Data as given in patent US5366983A, “Use of quaternary ammonium compounds to remove salmonella contamination from meat products” (The Board of Trustees of The University of Arkansas, priority 1992, dated 1994).
Several values for one entry are separate records, joined by “and”; a condition that tells them apart may be missing. Equal entries are not always repeated. Where two headings read alike, the source gives them in different places.

Key:
[1] = tested on: Salmonella typhimurium ATCC 14028 attached to human buccal epithelial cells; assay type: cell-based; details: Table A-1
Protocol: Studies were conducted on the attachment of Salmonella typhimurium to human buccal epithelial cells using the modified procedure of Boussard et al., International J. Pharmaceutics 53: 253-256 (1989). In this study, the activities of cationic and anionic surfactant compounds as well as certain chelating agents were compared on the detachment of S. typhimurium from epithelial cells.
To this end, bacteria were grown on nutrient agar for 16 hours at 37° C. The cells were suspended in 0.008 M phosphate buffered saline (PBS) at pH 7.2 and washed two times at 4500 rpm for 10 minutes. The last suspension was diluted in PBS to obtain a cell concentration of 0.5 to 1×10^9 cells/ml. Human epithelial cells were obtained by swabbing the buccal surface of a healthy, nonsmoking donor. […] The number of living cells was estimated and the suspension diluted to 0.5 to 1×10^5 cells/ml.
Next, the suspension of the human buccal cells was mixed with an equal volume of the bacterial suspension (3.0 ml), or PBS (0.8 ml). Contact was allowed for 1.5 hours at 35° C. under agitation. The mixtures were then centrifuged for 10 minutes at 4500 rpm. Each suspension, 1.0 ml, was transferred into Eppendorf vials and washed with PBS at 1500 rpm for 10 minutes. After the washing, the cells were treated with 1.0 ml PBS or 1.0 ml of the test chemical solution. Treatment was performed by suspending and vortexing on a low speed for 30 seconds followed by centrifugation at 1500 rpm for 10 minutes.
After the treatment, the cells were washed once with PBS and then 20 μl of erythrosin B was added to each vial. The suspension was centrifuged at 1500 rpm for 10 minutes, and the cells were washed twice under the same conditions. The final pellet was suspended in 300 μl of PBS. This suspension was spread out onto microscope slides and dried overnight at room temperature. After counter staining with methylene blue, the slides were microscopically examined under oil immersion.

[2] = tested on: Salmonella typhimurium ATCC 14028 attached to human buccal epithelial cells; assay: microbe, parasite or virus in culture; assay type: cell-based; details: for adherence, mean value of attached bacteria: Table A-3; for EC50: read-out: EC50 (±SD), detachment
Protocol: Additional studies on the detachment of Salmonella typhimurium from human buccal epithelial cells were conducted.
S. typhimurium ATCC 14028 was grown in nutrient broth (BBL Microbiology system, Cockeysville, Md.) for 16 hours at 37° C. The cells were centrifuged and washed twice with 0.008 M phosphate buffered saline (PBS, at pH 7.2) at 4500 rpm for 10 minutes. The last suspension was diluted in PBS to obtain a cell concentration 0.5 to 1×10^9 cells/ml using spectrophotometric measurement. Human epithelial cells were obtained by swabbing the buccal surface of a healthy, nonsmoking donor. […] The number of living cells was estimated and the suspension was diluted to 0.5 to 1×10^5 cells/ml.
The suspension of the human buccal cells was mixed with an equal volume of the bacterial suspension (3.0 ml), or PBS (0.8 ml) in 10 ml Erlenmeyer flasks. Contact was allowed for 1.5 hours at 35° C. under agitation. After incubation, 1.0 ml of each suspension was transferred into an Eppendorff vial, centrifuged at 3000 rpm for 10 minutes, and washed with PBS. The cells were treated with 1.0 ml PBS or 1.0 ml of the test chemical solution. Treatment was performed by suspending, gently vortexing, and centrifuging at 1500 rpm for 10 minutes. After the treatment, the cells were washed and placed on microscopic slides for examination.
EC50 represents the inverse measurement of the potency of a compound. EC50 values were determined by a nonlinear regression of the detachment effect versus the cationic surfactant concentration data from Table A-3.

[3] = tested on: Salmonella typhimurium ATCC 14028; assay: Minimum growth inhibitory concentration, macrodilution; assay type: cell-based; details: Mueler Hinton broth, macrodilution (NCCLS)
Protocol: Minimum growth inhibitory concentrations (MICs) of quaternary ammonium compounds and Na2 -EDTA for Salmonella were determined using Mueler Hinton broth (BBL Microbiology system, Cockeysville, Md.) and by the macrodilution method established by the National Committee for Clinical Laboratory Standards (NCCLS). Escherichia coli ATCC 25922 and Staphylococcus aureus ATCC 29213 were included in each assay as reference strains.

[4] = tested on: Salmonella typhimurium ATCC 14028; assay: Effect on viability of Salmonella in suspension (Tables D-1 to D-3); assay type: cell-based; details: for bacterial viability: Table D-1; for EC50: Salmonella enterica, read-out: EC50 (±SD), effect on viability in suspension
Protocol: EC50 values for four of the compounds were calculated from the bactericidal activity of the compounds as a function of molar concentration by a nonlinear regression algorithm.
In addition to the quaternary ammonium compounds, the antimicrobial activities of chelating agents Na2 -EDTA and EGTA were investigated. Na2 -EDTA was purchased from the Sigma Chemical Company (St. Louis, Mo.). Na2 -EDTA was dissolved in 0.04 M PPB prior to the assay and further dilutions were made in the same buffer.
EGTA was purchased from the Aldrich Chemical Company (Milwaukee, Wis.). EGTA was dissolved in 0.04 M PPB according to the procedure described by Harafuji and Ogawa (J. Biochem. 87:1305-1312 (1980)). After heating EGTA for 15 minutes at 80° C., the pH was adjusted to 7.0 by addition of NaOH. EGTA was filter-sterilized using a 0.2 μm Acro disc filter (Gelman Sciences; Ann Arbor, Mich.) prior to the assay. Further dilutions were made in sterile PPB.

[5] = tested on: Salmonella typhimurium on chicken skin; assay: Effect of surfactants on Salmonella attached to chicken skin, drumsticks (Tables F1-F4); details: 25° C.
Protocol: The following experiments utilizing chicken legs were conducted to determine the killing potential of a variety of surfactants against Salmonella on the skin and free in solutions. To this end, chicken legs obtained from the Department of Agriculture at the University of Arkansas, Fayetteville, were incubated for thirty minutes at room temperature with a 1:5000 dilution of Salmonella typhimurium. The chicken legs were removed five at a time and then rinsed twice in tap water to remove the unattached and excess Salmonella. The rinse water was sampled, diluted, and then plated onto XLD pour plates. […] The chicken legs were then removed and rinsed twice in tap water to remove the released Salmonella and excess chemicals. Rinses were then sampled, diluted, and then plated onto XLD pour plates.
The chicken legs were then individually washed with 100 ml sterile double distilled water, and then shaken fifty times. Samples of the wash H2 O were diluted and plated onto XLD pour plates. The chicken legs were further swabbed after the washing step above. The swabs were then plated onto the XLD plates. A set of wash samples were enriched with TT Broth Base Hajna and then plated onto XLD plates.
All of the samples were plated in 1 ml aliquots onto XLD pour plates. A positive control sample incubated in sterile double distilled water at 4° C. was run for each of the aforementioned conditions. Treatments occurred at both 4° C. and 25° C. The data is reported as the mean number of CFU/ml. The ratio in the table represents the number of chicken legs out of a sample of ten chicken legs producing the notated number of colonies, as indicated by the +, ++, +++, or ++++.

[6] = Salmonella enterica, Epithelial cell

Row | SMILES | adherence, mean value of attached bacteria ([2]; 100 ug/ml) | EC50 [2, 6] [µM] | MIC [3] [µg/mL] | MIC ([3]; Salmonella enterica) [µg/mL] | bacterial viability ([4]; 10 ug/ml) | EC50 [4] [µM] | Enrichment, chicken legs out of ten ([5]; 0.1%) | Rinse H2O ([5]; 0.1%) | Surfactant Solution ([5]; 0.1%) [CFU/ml] | Swabs, chicken legs producing the notated number of colonies ([5]; 0.1%) | Swabs, colonies ([5]; 0.1%) | Wash H2O, colonies ([5]; 0.1%) | Enrichment, chicken legs out of ten ([5]; 1.0%) | Rinse H2O ([5]; 1.0%) [CFU/ml] | Surfactant Solution ([5]; 1.0%) [CFU/ml] | Swabs, chicken legs producing the notated number of colonies ([5]; 1.0%) | Wash H2O, colonies ([5]; 1.0%) [CFU/ml] | Enrichment, chicken legs out of ten ([5]; .01%) | Rinse H2O ([5]; .01%) | Surfactant Solution ([5]; .01%) | also measured
1 | CCCCCCCCCCCC[N+](C)(C)C.[Br-] [DTMAB, dodecyltrimethylammonium bromide] | 92 ± 58 and 74 ± 56 | 868 ± 112 | 150 | 156 | 1.44 ± 0.07 × 10^9 CFU/ml | 730 ± 64 | 8/10 | + (1-10) | 0 | 6/10 | + (1-10) | ++ (11-100) | 0/10 | 0 | 0 | 0/10 | 0 | 10/10 | + (1-10) | + (1-10) | adherence, mean value of attached bacteria ([1]; 10 ug/ml): 76 ± 43; adherence, mean value of attached bacteria ([1]; 25 ug/ml): 41 ± 19; adherence, mean value of attached bacteria ([1]; 75 ug/ml): 30 ± 18; adherence, mean value of attached bacteria ([1]; 100 ug/ml): 23 ± 18; adherence, mean value of attached bacteria ([2]; 50 ug/ml): 113 ± 85; adherence, mean value of attached bacteria ([2]; 75 ug/ml): 102 ± 59; adherence, mean value of attached bacteria ([2]; 150 ug/ml): 80 ± 59; adherence, mean value of attached bacteria ([2]; 200 ug/ml): 60 ± 43; adherence, mean value of attached bacteria ([2]; 250 ug/ml): 63 ± 35; adherence, mean value of attached bacteria ([2]; 300 ug/ml): 54 ± 35; adherence, mean value of attached bacteria ([2]; 325 ug/ml): 68 ± 39; bacterial viability ([4]; 100 ug/ml): 1.3 ± 0.03 × 10^9 CFU/ml; bacterial viability ([4]; 200 ug/ml): 8.75 ± 1.28 × 10^8 CFU/ml; bacterial viability ([4]; 350 ug/ml): 800 ± 1300 CFU/ml; bacterial viability ([4]; 1000 ug/ml): 100 ± 100 CFU/ml; Wash H2O, chicken legs producing the notated number of colonies ([5]; 0.1%): 10/10; Swabs, chicken legs producing the notated number of colonies ([5]; .01%): 10/10; Swabs, colonies ([5]; .01%): + (1-10); Wash H2O, chicken legs producing the notated number of colonies ([5]; .01%): 10/10; Wash H2O, colonies ([5]; .01%): ++ (11-100)
2 | CCCCCCCCCCCCCCCC[N+](C)(C)C.[Br-] [HTMAB, hexadecyltrimethylammonium bromide] | 82 ± 35 | 333 ± 14 | 60 | 64 | 1.06 ± 0.08 × 10^9 CFU/ml and 1.67 ± 0.12 × 10^9 CFU/ml | 48 ± 0.03 | 5/10 | + (1-10) | 0 | 6/10 | + (1-10) | 0 CFU/ml | 0/10 | 0 | 0 | 3/10 | 0 | 5/10 | + (1-10) | 0 CFU/ml | adherence, mean value of attached bacteria ([1]; 5 ug/ml): 49 ± 21; adherence, mean value of attached bacteria ([1]; 50 ug/ml): 48 ± 20; cytotoxicity to buccal epithelial cells ([1]; 500 ug/ml): cytotoxic; adherence, mean value of attached bacteria ([2]; 175 ug/ml): 57 ± 33; adherence, mean value of attached bacteria ([2]; 250 ug/ml): 33 ± 19; bacterial viability ([4]; 20 ug/ml): 3.23 ± 0.38 × 10^8 CFU/ml and 6.35 ± 1.03 × 10^8 CFU/ml; Swabs, colonies ([5]; 1.0%): + (1-10); Swabs, chicken legs producing the notated number of colonies ([5]; .01%): 9/10; Swabs, colonies ([5]; .01%): + (1-10); Wash H2O, chicken legs producing the notated number of colonies ([5]; .01%): 10/10; Wash H2O, colonies ([5]; .01%): ++ (11-100)
3 | CCCCCCCCCCCCCC[N+](C)(C)C.[Br-] [TTMAB, tetradecyltrimethylammonium bromide] | 42 ± 22 and 26 ± 14 | 129 ± 3.9 | 60 | 64 | 1.33 ± 0.09 × 10^9 CFU/ml | 105 ± 0.8 | 0/10 | ++ (11-100) | 0 | 5/10 | + (1-10) | 0 CFU/ml | 0/10 | 0 | 0 | 0/10 | 0 | 8/10 | + (1-10) | 0 CFU/ml | adherence, mean value of attached bacteria ([1]; 5 ug/ml): 37 ± 20; adherence, mean value of attached bacteria ([1]; 10 ug/ml): 39 ± 26; adherence, mean value of attached bacteria ([1]; 25 ug/ml): 24 ± 13; adherence, mean value of attached bacteria ([1]; 50 ug/ml): 28 ± 14; adherence, mean value of attached bacteria ([2]; 25 ug/ml): 91 ± 66; adherence, mean value of attached bacteria ([2]; 50 ug/ml): 53 ± 34; adherence, mean value of attached bacteria ([2]; 75 ug/ml): 72 ± 53; adherence, mean value of attached bacteria ([2]; 175 ug/ml): 28 ± 10; minimal effective concentration ([2]; Salmonella enterica, Epithelial cell, read-out: active concentration, detachment): 25 µg/mL; bacterial viability ([4]; 20 ug/ml): 1.06 ± 0.08 × 10^9 CFU/ml; bacterial viability ([4]; 60 ug/ml): 1.52 ± 2.07 × 10^3 CFU/ml; bacterial viability ([4]; 80 ug/ml): 100 ± 173 CFU/ml; bacterial viability ([4]; 100 ug/ml): 0 CFU/ml; Swabs, chicken legs producing the notated number of colonies ([5]; .01%): 10/10; Swabs, colonies ([5]; .01%): + (1-10); Wash H2O, chicken legs producing the notated number of colonies ([5]; .01%): 10/10; Wash H2O, colonies ([5]; .01%): ++ (11-100)
